Experimental data from ChEMBL document CHEMBL4049443, “Discovery of 2-[[2-Ethyl-6-[4-[2-(3-hydroxyazetidin-1-yl)-2-oxoethyl]piperazin-1-yl]-8-methylimidazo[1,2-a]pyridin-3-yl]methylamino]-4-(4-fluorophenyl)thiazole-5-carbonitrile (GLPG1690), a First-in-Class Autotaxin Inhibitor Undergoing Clinical Evaluation for the Treatment of Idiopathic Pulmonary …” (J Med Chem, 2017).

Experiments:
Autotaxin = Autotaxin (Homo sapiens, UniProt Q13822); assay: Inhibition of human ATX using LPC (16:0) as substrate after 30 mins by horseradish peroxidase/choline oxidase coupled enzyme based spectrophotometric analysis
Cytochrome P450 3A4 = Cytochrome P450 3A4 (Homo sapiens, UniProt P08684); assay: Time-dependent inhibition of human liver microsomes CYP3A4; assay type: ADME
Chain of Cytochrome P450 3A4 (P08684 whole entry): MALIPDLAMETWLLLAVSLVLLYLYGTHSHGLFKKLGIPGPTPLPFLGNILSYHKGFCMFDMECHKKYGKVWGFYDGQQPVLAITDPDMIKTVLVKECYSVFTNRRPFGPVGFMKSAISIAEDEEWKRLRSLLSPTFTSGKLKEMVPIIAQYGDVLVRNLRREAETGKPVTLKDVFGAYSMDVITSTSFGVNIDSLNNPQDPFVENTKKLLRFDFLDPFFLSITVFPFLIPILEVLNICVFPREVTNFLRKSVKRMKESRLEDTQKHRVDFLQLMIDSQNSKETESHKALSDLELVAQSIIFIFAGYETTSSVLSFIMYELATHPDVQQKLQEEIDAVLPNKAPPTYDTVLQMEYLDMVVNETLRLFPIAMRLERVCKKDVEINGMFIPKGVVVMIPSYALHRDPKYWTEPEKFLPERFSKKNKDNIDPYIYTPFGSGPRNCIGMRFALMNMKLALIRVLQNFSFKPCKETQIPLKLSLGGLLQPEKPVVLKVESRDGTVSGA

| SMILES | IC50 (Autotaxin) [nM] | TDI (Cytochrome P450 3A4) |
| --- | --- | --- |
| CCc1nc2c(C)cc(C3CCN(CC(=O)N4CC(O)C4)CC3)cn2c1N(C)c1nc(-c2ccc(F)cc2)c(C#N)s1 | 103 | Not Active |
| CCc1nc2cc(C)c(C3CCN(CC(=O)N4CC(O)C4)CC3)cn2c1N(C)c1nc(-c2ccc(F)cc2)cs1 | 811 | Not Active |
| CCc1nc2ccc(C3CCN(CC(=O)N4CC(O)C4)CC3)cn2c1N(C)c1nc(-c2ccc(F)cc2)cs1 | 246 | Active |
